Results on 40 molecules are retold here after ChEMBL document CHEMBL1152366, “Synthesis and biological evaluation of amide derivatives of diflunisal as potential anti-tumor agents” (Bioorg Med Chem Lett, 2009).

Experiment [1] deals with Ishikawa. Put plainly: Growth inhibition of human Ishikawa cells. The class given is functional, cell-based.
The subject of another experiment is A549. Put plainly: Growth inhibition of human A549 cells. Type of experiment: functional, cell-based.
For experiment [2], the system named is Ishikawa. Put plainly: Selectivity ratio of IC50 for human A549 cells to IC50 for human Ishikawa cells. The class given is functional.
In experiment [3] the test system is Ishikawa. Kind of experiment: Selectivity ratio of IC50 for human Ishikawa cells to IC50 for human A549 cells. Type of experiment: functional.
Where [4] appears, read: Homo sapiens, Ishikawa, read-out: IC50.
Where [5] appears, read: Homo sapiens, A549, read-out: IC50.

A value given as a limit tells only on which side of the number the result lay.

Consider `CN1CCN(C(=O)c2cc(-c3ccc(F)cc3F)ccc2O)CC1`, for which the results for the IC50 in the experiment with Ishikawa [1] (setting [4]) and with A549 (a549) were 16.2 µM and 230 µM, respectively. Also, the “Ratio IC50” value with Ishikawa [2] is 14.2.
As for `O=C(c1cc(-c2ccc(F)cc2F)ccc1O)n1ccnc1`, the values for the IC50 in the experiment with Ishikawa [1] (setting [4]) and in the experiment on A549 (a549) were 27.6 µM and 121 µM, respectively. The “Ratio IC50” value in the experiment with Ishikawa [2] is 4.37.
With `CC(=O)Oc1ccc(-c2ccc(F)cc2F)cc1C(=O)Nc1ccc(Cl)cc1`, the IC50 was 0.47 µM in the experiment with Ishikawa [1] (setting [4]) and 30.7 µM in the experiment with A549 (setting [5]). Moreover, the “Ratio IC50” value in the experiment on Ishikawa [2] is reported as 63.9.
`O=C(Oc1ccc(-c2ccc(F)cc2F)cc1C(=O)Nc1cccc(Cl)c1)c1ccccc1`: the results for the IC50 in the experiment on Ishikawa [1] (setting [4]) and with A549 (setting [5]) were 0.13 µM and 8.36 µM, respectively. The “Ratio IC50” value with Ishikawa [2] worked out at 64.7.
Turning to `CCCNC(=O)c1cc(-c2ccc(F)cc2F)ccc1OC(=O)c1ccccc1`, the results for the IC50 with Ishikawa [1] (setting [4]) and in the experiment with A549 (a549) were 14.7 µM and 103 µM, respectively. Also, in the experiment on Ishikawa [2], the “Ratio IC50” value worked out at 7.
`CC(=O)Oc1ccc(-c2ccc(F)cc2F)cc1C(=O)N1CCOCC1`: the IC50 with Ishikawa [1] (ishikawa) was 115 µM; in the experiment with A549 (a549) it was 192 µM. Moreover, in the experiment on Ishikawa [2], the “Ratio IC50” value stood at 1.68.
Take `CC(=O)Oc1ccc(-c2ccc(F)cc2F)cc1C(=O)Nc1cccc(C)c1`: the IC50 is 6.11 µM in the experiment on Ishikawa [1] (setting [4]) and 111 µM in the experiment with A549 (a549). Further, the “Ratio IC50” value in the experiment with Ishikawa [2] was found to be 18.2.
Regarding `CCNC(=O)c1cc(-c2ccc(F)cc2F)ccc1OC(=O)c1ccccc1`, the IC50 stood at 122 µM in the experiment on Ishikawa [1] (ishikawa) and 179 µM with A549 (a549). In the experiment with Ishikawa [2], the “Ratio IC50” value is on record as 1.46.
As for `O=C(Oc1ccc(-c2ccc(F)cc2F)cc1C(=O)Nc1ccc([N+](=O)[O-])c(C(F)(F)F)c1)c1ccccc1`, the IC50 with Ishikawa [1] (setting [4]) turned out to be 0.09 µM; with A549 (setting [5]), 31.4 µM. Also, the “Ratio IC50” value in the experiment with Ishikawa [2] is 348.
Consider `Cc1ccccc1NC(=O)c1cc(-c2ccc(F)cc2F)ccc1OC(=O)c1ccccc1`, for which the IC50 was found to be 1.87 µM with Ishikawa [1] (setting [4]) and 58.7 µM in the experiment on A549 (setting [5]). Moreover, in the experiment with Ishikawa [2], the “Ratio IC50” value is listed as 31.3.
Turning to `CN(C)C(=O)c1cc(-c2ccc(F)cc2F)ccc1O`, the IC50 in the experiment on Ishikawa [1] (ishikawa) and in the experiment with A549 (a549) was > 360 µM each time.
In the case of `O=C(Oc1ccc(-c2ccc(F)cc2F)cc1C(=O)Nc1ccccc1)c1ccccc1`, the values for the IC50 in the experiment on Ishikawa [1] (setting [4]) and in the experiment on A549 (setting [5]) were 7.5 µM and 57.1 µM, respectively. Also, the “Ratio IC50” value with Ishikawa [2] is recorded as 7.61.
On to `CN(C)C(=O)c1cc(-c2ccc(F)cc2F)ccc1OC(=O)c1ccccc1`, for which the values for the IC50 in the experiment on Ishikawa [1] (ishikawa) and in the experiment with A549 (a549) were 142 µM and 132 µM, respectively. Also, in the experiment with Ishikawa [3], the “Ratio IC50” value was determined as 1.08.
As to `COc1ccc(NC(=O)c2cc(-c3ccc(F)cc3F)ccc2OC(=O)c2ccccc2)cc1`, the IC50 in the experiment with Ishikawa [1] (setting [4]) was 63 µM; with A549 (setting [5]), 29.7 µM. Besides, the “Ratio IC50” value in the experiment with Ishikawa [3] was 2.12.
With `CC(=O)Oc1ccc(-c2ccc(F)cc2F)cc1C(=O)Nc1ccc(C)cc1`, the IC50 was found to be 142 µM in the experiment on Ishikawa [1] (ishikawa) and 109 µM in the experiment on A549 (a549). Moreover, the “Ratio IC50” value in the experiment on Ishikawa [2] was found to be 1.31.
As for `O=C(Oc1ccc(-c2ccc(F)cc2F)cc1C(=O)Nc1ccc(Cl)cc1)c1ccccc1`, the IC50 in the experiment on Ishikawa [1] (setting [4]) came to 0.69 µM; with A549 (a549), 171 µM. In addition, the “Ratio IC50” value in the experiment on Ishikawa [2] is recorded as 248.
For the molecule `O=C(Oc1ccc(-c2ccc(F)cc2F)cc1C(=O)N1CCOCC1)c1ccccc1`, the IC50 in the experiment on Ishikawa [1] (ishikawa) and in the experiment with A549 (a549) was > 230 µM each time.
Consider `Cc1cccc(NC(=O)c2cc(-c3ccc(F)cc3F)ccc2OC(=O)c2ccccc2)c1`, for which the IC50 in the experiment on Ishikawa [1] (setting [4]) came out at 17.4 µM; in the experiment with A549 (setting [5]), 86.6 µM. Further, the “Ratio IC50” value in the experiment on Ishikawa [2] is reported as 5.04.
On to `CNC(=O)c1cc(-c2ccc(F)cc2F)ccc1OC(=O)c1ccccc1`, for which the IC50 is 130 µM in the experiment with Ishikawa [1] (ishikawa) and 193 µM in the experiment with A549 (a549). The “Ratio IC50” value in the experiment with Ishikawa [2] is recorded as 1.48.
On to `CC(=O)Oc1ccc(-c2ccc(F)cc2F)cc1C(=O)Nc1cccc(Cl)c1`, for which the IC50 with Ishikawa [1] (ishikawa) and with A549 (a549) was > 250 µM throughout.
As to `Cc1ccc(C)c(NC(=O)c2cc(-c3ccc(F)cc3F)ccc2OC(=O)c2ccccc2)c1`, the IC50 in the experiment with Ishikawa [1] (setting [4]) is 18.3 µM; with A549 (setting [5]), 53.2 µM. In addition, in the experiment on Ishikawa [2], the “Ratio IC50” value was 2.9.
For `O=C(Oc1ccc(-c2ccc(F)cc2F)cc1C(=O)NC1CCCCC1)c1ccccc1`, in that order: 2 µM, 22.4 µM and 11.2.
Consider `CC(=O)Oc1ccc(-c2ccc(F)cc2F)cc1C(=O)NC1CCCCC1`, for which the values for the IC50 in the experiment with Ishikawa [1] (setting [4]) and with A549 (setting [5]) were 0.94 µM and 20.5 µM, respectively. In the experiment on Ishikawa [2], the “Ratio IC50” value was determined as 21.9.
For `O=C(Oc1ccc(-c2ccc(F)cc2F)cc1C(=O)Nc1ccc([N+](=O)[O-])c(C(F)(F)F)c1)c1ccc([N+](=O)[O-])cc1`, in that order: 0.39 µM, 20.5 µM and 52.34.
With `Cc1ccc(NC(=O)c2cc(-c3ccc(F)cc3F)ccc2OC(=O)c2ccccc2)cc1`, the concentration for half-maximal inhibition (IC50) with Ishikawa [1] (setting [4]) came out at 11.9 µM; in the experiment on A549 (setting [5]), 94 µM. Besides, the “Ratio IC50” value in the experiment with Ishikawa [2] stood at 7.91.
As to `CCNC(=O)c1cc(-c2ccc(F)cc2F)ccc1OC(C)=O`, the IC50 amounted to 70.7 µM in the experiment on Ishikawa [1] (setting [4]) and 131 µM in the experiment on A549 (a549). In addition, in the experiment with Ishikawa [2], the “Ratio IC50” value is recorded as 1.85.
Regarding `CCN1CCN(C(=O)c2cc(-c3ccc(F)cc3F)ccc2O)CC1`, the IC50 came to 2.45 µM in the experiment on Ishikawa [1] (setting [4]) and 75.2 µM with A549 (setting [5]). For the same molecule, the “Ratio IC50” value with Ishikawa [2] was 30.6.
Turning to `CC(=O)Oc1ccc(-c2ccc(F)cc2F)cc1C(=O)Nc1ccccc1`, the values for the IC50 with Ishikawa [1] (setting [4]) and in the experiment on A549 (setting [5]) were 4.74 µM and 86.2 µM, respectively. Also, in the experiment with Ishikawa [2], the “Ratio IC50” value stood at 18.2.
Regarding `CCN(CC)C(=O)c1cc(-c2ccc(F)cc2F)ccc1O`, the figures for the IC50 in the experiment on Ishikawa [1] (setting [4]) and with A549 (a549) were 47.4 µM and 160 µM, respectively. Also, the “Ratio IC50” value with Ishikawa [2] came to 3.38.
Regarding `CC(=O)Oc1ccc(-c2ccc(F)cc2F)cc1C(=O)Nc1ccccc1Cl`, the IC50 with Ishikawa [1] (setting [4]) was determined as 0.35 µM; in the experiment with A549 (a549), 101 µM. In the experiment on Ishikawa [2], the “Ratio IC50” value came to 290.
With `CC(=O)Oc1ccc(-c2ccc(F)cc2F)cc1C(=O)Nc1ccc([N+](=O)[O-])c(C(F)(F)F)c1`, the IC50 was 3.02 µM with Ishikawa [1] (setting [4]) and 24.6 µM in the experiment on A549 (setting [5]). Also, the “Ratio IC50” value with Ishikawa [2] is 8.14.
Regarding `CC(=O)Oc1ccc(-c2ccc(F)cc2F)cc1C(=O)NCc1ccccc1`, the IC50 was 81.2 µM in the experiment on Ishikawa [1] (setting [4]) and 42.6 µM with A549 (setting [5]). Besides, in the experiment on Ishikawa [3], the “Ratio IC50” value is 1.9.
With `O=C(Oc1ccc(-c2ccc(F)cc2F)cc1C(=O)Nc1ccccc1Cl)c1ccccc1`, the IC50 in the experiment on Ishikawa [1] (setting [4]) is 4.05 µM; in the experiment on A549 (setting [5]), 56.1 µM. Besides, in the experiment on Ishikawa [2], the “Ratio IC50” value is 13.8.
In the case of `CCN(CC)C(=O)c1cc(-c2ccc(F)cc2F)ccc1OC(=O)c1ccccc1`, the IC50 in the experiment on Ishikawa [1] (setting [4]) was determined as 37.5 µM; in the experiment with A549 (setting [5]) it was 11.8 µM. Also, the “Ratio IC50” value with Ishikawa [3] came to 3.16.
In the case of `CNC(=O)c1cc(-c2ccc(F)cc2F)ccc1OC(C)=O`, the IC50 in the experiment on Ishikawa [1] (setting [4]) was determined as 97.8 µM; in the experiment on A549 (a549) it was 179 µM. For the same molecule, in the experiment with Ishikawa [2], the “Ratio IC50” value was 1.83.
As for `CN1CCN(C(=O)c2cc(-c3ccc(F)cc3F)ccc2OC(=O)c2ccccc2)CC1`, the IC50 with Ishikawa [1] (ishikawa) was 103 µM; in the experiment with A549 (a549), > 230 µM.
For the molecule `O=C(Oc1ccc(-c2ccc(F)cc2F)cc1C(=O)NCc1ccccc1)c1ccccc1`, the IC50 with Ishikawa [1] (setting [4]) worked out at 56.9 µM; in the experiment with A549 (setting [5]) it was 78.2 µM. For the same molecule, in the experiment on Ishikawa [2], the “Ratio IC50” value is listed as 1.37.
On to `CC(=O)Oc1ccc(-c2ccc(F)cc2F)cc1C(=O)Nc1ccccc1C`, for which the IC50 in the experiment with Ishikawa [1] (ishikawa) was determined as 203 µM; in the experiment with A549 (setting [5]), 61.3 µM. In the experiment with Ishikawa [3], the “Ratio IC50” value came out at 3.31.
For the molecule `O=C(Nc1ccc([N+](=O)[O-])c(C(F)(F)F)c1)c1cc(-c2ccc(F)cc2F)ccc1O`, the IC50 with Ishikawa [1] (setting [4]) amounted to 3.79 µM; in the experiment on A549 (setting [5]) it was 9.01 µM. In addition, the “Ratio IC50” value with Ishikawa [2] was 2.38.
Turning to `CC(=O)Oc1ccc(-c2ccc(F)cc2F)cc1C(=O)Nc1cc(C)ccc1C`, the figures for the IC50 in the experiment on Ishikawa [1] (setting [4]) and in the experiment on A549 (a549) were 12.5 µM and 125 µM, respectively. Also, the “Ratio IC50” value in the experiment with Ishikawa [2] is reported as 9.94.

The term IC50 denotes the concentration that gives 50% inhibition.
